From patent publication US8673587B2, “Methods for identifying allosteric and other novel acyl-coenzyme A:cholesterol acyltransferase inhibitors” (Trustees of Dartmouth College, priority 2010, dated 2014)
pEC50: −log10 of the molar value.

Assays:
[1] = target: T1, histidine-tagged recombinant human ACAT1 (Homo sapiens, UniProt P35610, M1L); assay: Steroid (pregnenolone/DHEA/E2) esterification in mixed micelles, ACAT1 as enzyme source; assay type: biochemical; conditions: for activation of pregnenolone esterification by sterol: sterol at 0.32 mM, 1 μM [3H]-pregnenolone; for ACAT1 substrate activity: 1 μM [3H]-steroid
T1 construct: hACAT-1 cDNA (nucleotide residues 1397-3046, a total of 550 amino acids); made in house; partially purified on a nickel column
T1 sequence (P35610 1-550 M1L): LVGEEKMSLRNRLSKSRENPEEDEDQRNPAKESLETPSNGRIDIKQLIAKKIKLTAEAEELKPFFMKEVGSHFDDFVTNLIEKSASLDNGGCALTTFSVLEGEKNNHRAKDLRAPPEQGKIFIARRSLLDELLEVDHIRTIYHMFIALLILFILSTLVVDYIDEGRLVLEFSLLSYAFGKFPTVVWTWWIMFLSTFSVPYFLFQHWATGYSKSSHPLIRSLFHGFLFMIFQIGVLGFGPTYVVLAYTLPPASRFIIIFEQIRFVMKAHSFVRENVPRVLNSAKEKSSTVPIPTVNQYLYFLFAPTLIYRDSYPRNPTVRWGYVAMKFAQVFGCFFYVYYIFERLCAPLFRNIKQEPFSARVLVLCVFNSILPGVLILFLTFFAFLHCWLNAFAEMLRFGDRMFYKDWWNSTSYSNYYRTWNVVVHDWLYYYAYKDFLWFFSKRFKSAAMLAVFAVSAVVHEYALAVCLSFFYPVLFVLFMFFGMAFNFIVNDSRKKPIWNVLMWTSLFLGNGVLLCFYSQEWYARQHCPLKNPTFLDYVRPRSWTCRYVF
Excerpt: (§1) The method of the present invention was developed in experiments using a mixed micelle enzyme assay system. […] A candidate ACAT inhibitor is an allosteric inhibitor if it is shown in the method of the present invention to inhibit cholesterol-dependent pregnenolone esterification but not to inhibit the basal pregnenolone esterification when cholesterol is absent in the assay mixture. […] In the assay system of the present invention, the source of ACAT was histidine-tagged recombinant human ACAT1 or human ACAT2, stably expressed in Chinese hamster ovary (CHO) cells that lack endogenous ACAT activity. However, one of skill in the art could employ other suitable mammalian cell systems as needed. The enzyme preparations used in the present method were partially purified through the use of nickel column chromatography, as described previously (Liu et al. 2005. Biochem. J. 391:389-397), using cells that stably expressing histidine-tagged recombinant human ACAT1 or human ACAT2 as the enzyme source.
(§2) In developing the method of the present invention, a series of experiments was performed. Pregnenolone is one compound that contains the classical A, B, C, D steroid rings as well as a 3 beta-OH moiety. Based on its structure, pregnenolone may be an ACAT substrate. However, this possibility had not previously been tested experimentally. In the present invention, the activity of pregnenolone was tested by using radiolabeled pregnenolone ([^3H]-pregnenolone) in a mixed micelle enzyme assay mixture that contained the detergent taurocholate (or CHAPS), phosphatidylcholine, and oleyl-coenzyme A bound to bovine serum albumin (BSA). The enzyme used was histidine-tagged human ACAT1 or human ACAT2. The esterification of pregnenolone (i.e., formation of pregnenolone oleate) was monitored by performing lipid extraction to isolate [^3H]-pregnenolone oleate and [^3H]-pregnenolone. [^3H]-pregnenolone oleate was then separated from [^3H]-pregnenolone by using conventional thin-layer chromatography. Levels of [^3H]-pregnenolone oleate formed was measured using a scintillation counter. […] Thus, using ACAT1 as the enzyme source, the esterification of DHEA was examined (FIG. 1C).
A pregnenolone substrate saturation curve was then constructed, with or without addition of cholesterol to the assay mixture, using ACAT1 as the enzyme source (FIG. 2A). […] Then, a DHEA substrate saturation curve was constructed, with cholesterol present.
Further experiments were performed to examine the effect of adding various non-oxysterols, at a concentration of 0.32 mM, on pregnenolone esterification in vitro, with ACAT1 as the enzyme source.
(§3) To assay the enzyme, the pregnenolone/detergent/PC micelles and the cholesterol/detergent/PC micelles were prepared individually as follows: the radiolabeled pregnenolone/PC mixture or the cholesterol/PC mixture was prepared as described previously (Shi et al. 1989. Biochim. Biophys. Acta 982:187-195) and lyophilized to remove residual organic solvents. After lyophilization, the detergent sodium taurocholate (or other detergent such as CHAPS) in Buffer A was added to reach a final concentration of 10 mg/ml. The mixture was purged with nitrogen, followed by sonication until this mixture was clear. The pregnenolone/PC micelles were mixed with the cholesterol/PC micelles such that the cholesterol concentration is at 0 mM or at 0.32 mM, and the radioactive pregnenolone concentration is at 1 μM (specific activity 20 Ci/mmol).

[2] = target: T2, HisACAT1/FLAG (recombinant hACAT1) (Homo sapiens, UniProt P35610, M1L); assay: Ligand binding by change in intrinsic (tryptophan) fluorescence of HisACAT1/FLAG; conditions: for maximal increase in fluorescence peak height with respect to unliganded ACAT1 protein: excitation 295 nm, peak 330 nm
T2 construct: hACAT1 contains 550 amino acids; made in house
T2 sequence (P35610 1-550 M1L): T1 sequence (P35610 1-550 M1L)
Excerpt: Fluorescence measurements were generated using an ISS PC1 photocounting fluorescence spectrophotometer (model 90095). This instrument has continuously reproducible slits ranging from 0.4 to 32 nm band-pass. The excitation slit width was set at 2 nm. The wavelength for excitation was set at 295 nm in order to minimize the contribution of tyrosine residues to the fluorescence. Purified HisACAT1/FLAG was concentrated using 30K AMICON centrifugal filters such that the final concentration of the protein was 100-200 ng/μL (1.5-3 μM). Purified protein was stored at −80° C. until used. Unless stated otherwise, the fluorescence measurements were performed at pH 7.8 with 50 mM potassium phosphate, 0.5M KCl, and 8.13 mM CHAPS. Sterol (cholesterol, epicholesterol, coprostanol, and epicoprostanol) was prepared as CHAPS/PC/sterol mixed micelles (with CHAPS at 8.13 mM, PC at 4 mM, and with varying concentrations of sterols as indicated) and stored at 20° C. in the dark until usage. The fatty acyl-CoAs were dissolved in 20 mM sodium acetate at pH 6.4 as a 2 mM stock and stored at −80° C. until used. Before the experiment started, all reagents were kept on ice in the dark. To begin the experiment, 50 μL of mixed micelles without or with sterols was added into a HELLMA microcuvette with 3 mm light path. Twenty-five microliters of ACAT1 protein (in 8.13 mM CHAPS and 0.5 M KCl) was then added and rapidly mixed. Fluorescence was monitored within 15 seconds of adding the enzyme. The sample compartment of the instrument was maintained at 20° C. The fluorescence emission spectrum was scanned in 2 minutes between 310 and 410 nm. The differences in fluorescence intensity at 10 intervals within 325-335 nm were averaged in order to calculate the ΔF value between the ligated protein vs that of the unligated protein.
Binding studies were subsequently conducted by monitoring the effect of increasing concentrations of oleoyl-CoA on the intrinsic fluorescence of HisACAT1/FLAG. […] However, the maximal change in the peak of the spectrum was much smaller (5% with respect to the unliganded protein). […] The data was analyzed for a simple bimolecular dissociation equilibrium using the PRISM program.
Binding experiments were subsequently performed by monitoring the effect of increasing concentrations of cholesterol, from 10 to 600 μM, on the intrinsic fluorescence of HisACAT1/FLAG. […] It was estimated that the cholesterol concentration that caused half-maximal spectral change was 35 μM. […] The changes in the intrinsic fluorescence of ACAT1 caused by cholesterol, epicholesterol, coprostanol, or epicoprostanol as the ligand were also compared.

[3] = target: T3, histidine-tagged recombinant human ACAT2 (Homo sapiens, UniProt O75908); assay: Pregnenolone esterification in mixed micelles, ACAT2 as enzyme source; assay type: biochemical; conditions: ACAT2; for activation of pregnenolone esterification by sterol: sterol at 0.32 mM, 1 μM [3H]-pregnenolone
T3 construct: made in house; partially purified on a nickel column
T3 sequence (O75908 1-522): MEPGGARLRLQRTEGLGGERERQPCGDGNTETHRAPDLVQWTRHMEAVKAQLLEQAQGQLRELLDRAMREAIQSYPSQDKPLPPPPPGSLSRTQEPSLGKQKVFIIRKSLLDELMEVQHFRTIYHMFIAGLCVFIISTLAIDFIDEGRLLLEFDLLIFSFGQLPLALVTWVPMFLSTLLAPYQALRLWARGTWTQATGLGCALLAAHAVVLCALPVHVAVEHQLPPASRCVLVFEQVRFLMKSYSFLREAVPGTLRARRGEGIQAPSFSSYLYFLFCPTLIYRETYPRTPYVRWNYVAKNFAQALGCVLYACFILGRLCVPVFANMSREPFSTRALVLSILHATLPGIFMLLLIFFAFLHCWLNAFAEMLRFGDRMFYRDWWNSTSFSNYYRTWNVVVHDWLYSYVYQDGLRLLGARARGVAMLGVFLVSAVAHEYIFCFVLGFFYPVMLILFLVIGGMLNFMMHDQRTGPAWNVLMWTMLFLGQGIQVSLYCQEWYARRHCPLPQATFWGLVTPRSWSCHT
Excerpt: as §1, §2, §3

[4] = tested on: amyloid precursor protein (APP); conditions: cited from earlier work

## CC(C)CCC[C@@H](C)[C@H]1CC[C@H]2[C@@H]3CC=C4C[C@H](O)CC[C@]4(C)[C@H]3CC[C@]12C [Epi-cholesterol]
[1]; ACAT1
  activation of pregnenolone esterification by sterol: much less efficiently than sitosterol
[2]
  maximal increase in fluorescence peak height with respect to unliganded ACAT1 protein: much smaller than those caused by cholesterol
[2]; ligand 10 to 600 μM
  concentration that caused half-maximal spectral change: too small to derive a reliable binding curve

## CC(C)[C@@H](C)/C=C/[C@@H](C)[C@H]1CC[C@H]2C3=CC=C4C[C@@H](O)CC[C@]4(C)C3=CC[C@]12C [dehydroergosterol]
[1]; ACAT1
  activation of pregnenolone esterification by sterol: much less efficiently than sitosterol

## CC(C)CCCC(C)C1CCC2C3CC=C4CC(O)CCC4(C)C3CCC12C (single isomer, unassigned) [enantiomeric (ent-)cholesterol]
[1]; ACAT1
  activation of pregnenolone esterification by sterol: much less efficiently than sitosterol

## CC[C@H](CC[C@@H](C)[C@H]1CC[C@H]2[C@@H]3CC=C4C[C@@H](O)CC[C@]4(C)[C@H]3CC[C@]12C)C(C)C [Sitosterol]
[1]; ACAT1
  activation of pregnenolone esterification by sterol: not as efficiently as cholesterol
[3]
  activation of pregnenolone esterification by sterol: only slightly activated

## C[C@]12CC[C@H](O)CC1=CC[C@@H]1[C@@H]2CC[C@]2(C)C(=O)CC[C@@H]12 [DHEA, dihydroepiandrosterone]
[1]; absence of cholesterol
  ACAT1 substrate activity: did not exhibit ACAT substrate activity
[1]; presence of excess cholesterol (0.32 mM)
  ACAT1 substrate activity: exhibited significant substrate activity
[1]; with cholesterol present in vitro (0.32 mM)
  apparent Km as ACAT1 substrate: too high to be measurable

## CC(C)CCC[C@@H](C)[C@H]1CC[C@H]2[C@@H]3[C@H](O)C=C4C[C@@H](O)CC[C@]4(C)[C@H]3CC[C@]12C [7-alpha-OH-cholesterol]
[1]; ACAT1
  activation of pregnenolone esterification by sterol: least activation

## CC(C)CCC[C@@H](C)[C@H]1CC[C@H]2[C@@H]3CC=C4C[C@@H](O)CC[C@]4(C)[C@H]3CC[C@]12C [cholesterol]
[1]; ACAT1, cholesterol added to assay mixture
  activation of pregnenolone esterification: more than 100 fold
[1]; ACAT1
  activation of pregnenolone esterification by sterol: maximal activation
[3]; cholesterol added to assay mixture
  activation of pregnenolone esterification: more than 100 fold
[3]
  activation of pregnenolone esterification by sterol: maximal activation
[2]
  maximal increase in fluorescence peak height with respect to unliganded ACAT1 protein: up to 35%
[2]; ligand 10 to 600 μM, read-out: concentration that caused half-maximal spectral change
  pEC50: 4.46

## CC(C)CC[C@@H](O)[C@@H](C)[C@H]1CC[C@H]2[C@@H]3CC=C4C[C@@H](O)CC[C@]4(C)[C@H]3CC[C@]12C [22R-hydroxy-cholesterol]
[1]; ACAT1
  activation of pregnenolone esterification by sterol: least activation

## CCCCCCCC[C@H](SCCCCCC)C(=O)Nc1c(SC)cc(C)nc1SC [CP113818]
[4]; animal model for AD
  full-length human APP content: did not cause a reduction
[4]; animal models for AD
  processing of APP: inhibit the processing of both human amyloid precursor protein (APP) and mouse APP

## CCCCCCCCCCCCCCCCCC(=O)SCCNC(=O)CCNC(=O)[C@H](O)C(C)(C)COP(=O)(O)OP(=O)(O)OC[C@H]1O[C@@H](n2cnc3c(N)ncnc32)[C@H](O)[C@@H]1OP(=O)(O)O [stearoyl-CoA]
[2]
  maximal increase in fluorescence peak height with respect to unliganded ACAT1 protein: 5%
[2]; simple bimolecular dissociation equilibrium, PRISM
  dissociation constant: too small to derive a reliable dissociation constant
